# Key:
# dephosphorylated BTK = dephosphorylated BTK (Homo sapiens (Human), UniProt Q06187); assay: BTK Activity Inhibition Test (mobility shift assay); type: biochemical; settings: 200 μM ATP, read-out: Inhibitory Activity on BTK
# Outline: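 Biotinylated human BTK was dephosphorylated with λ phosphatase and assayed by mobility shift, with FITC-SRCtide as substrate in 20 mM HEPES pH 7.5, 0.01% Triton X-100 and 2 mM DTT. The substrate mix held 4 μM substrate, 20 mM MgCl2 and 200 μM ATP, and the enzyme solution held 0.46 nM BTK (stock levels, not final). After 2 h at room temperature, % inhibition was derived from P/(P+S) and IC50 by log-concentration regression.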
# BTK = BTK (Homo sapiens (Human), UniProt Q06187); assay: Intracellular BTK Auto-Phosphorylation Activity Inhibition Test in Ramos cells; type: cell-based; settings: test compound 0.03 μM, anti-IgM stimulation, pY223, read-out: Inhibitory Activity on BTK-phosphorization
# Chain of BTK (Q06187 whole entry): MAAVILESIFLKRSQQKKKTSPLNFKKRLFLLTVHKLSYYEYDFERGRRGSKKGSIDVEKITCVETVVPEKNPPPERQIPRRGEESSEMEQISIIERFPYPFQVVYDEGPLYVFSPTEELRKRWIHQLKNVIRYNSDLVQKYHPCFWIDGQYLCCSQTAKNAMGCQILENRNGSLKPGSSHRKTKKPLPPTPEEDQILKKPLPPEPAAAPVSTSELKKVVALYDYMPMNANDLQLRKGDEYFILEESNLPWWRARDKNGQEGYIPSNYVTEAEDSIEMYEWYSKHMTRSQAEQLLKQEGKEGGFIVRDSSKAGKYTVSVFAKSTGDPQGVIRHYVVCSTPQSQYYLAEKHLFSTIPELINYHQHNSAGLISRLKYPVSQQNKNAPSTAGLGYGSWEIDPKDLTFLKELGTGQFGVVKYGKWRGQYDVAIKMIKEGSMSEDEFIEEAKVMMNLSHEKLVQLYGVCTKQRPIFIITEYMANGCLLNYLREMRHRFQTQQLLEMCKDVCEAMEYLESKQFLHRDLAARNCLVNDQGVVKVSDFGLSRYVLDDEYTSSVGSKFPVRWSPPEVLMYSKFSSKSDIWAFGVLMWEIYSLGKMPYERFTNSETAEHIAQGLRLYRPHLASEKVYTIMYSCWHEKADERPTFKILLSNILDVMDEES
# Description: Ramos cells (2G6.4C10, ATCC No. CRL-1923) were cultured in a T75 flask containing RPMI-1640 medium (GIBCO, # A10491-01) supplemented with 10% FBS (AusGene) and 1% penicillin-streptomycin (Nacalai Tesque, Inc.) (hereinafter referred to as growth medium) in a 5% CO2 incubator.
# The cultured Ramos cells were diluted to a cell density of 7.5×10^6 cells/mL with a serum-free RPMI-1640 (hereinafter referred to as medium) and kept at 37° C. for 45 minutes. The cell suspension was dispensed in 1 mL aliquots into 2.0 mL tubes. A 0.03 mM solution of the test substance in DMSO was diluted with the medium to make a 0.09 μM test compound solution, 500 μL of which was then added to the tubes and the incubation was conducted at 37° C. for 1 hour in the presence of the test compound at a final concentration of 0.03 μM. Thereafter, the anti-IgM antibody (Invitrogen, H15100) which had been diluted with the medium was added at a final concentration of 10 μg/mL, and the incubation was conducted at 37° C. for 10 minutes.
# To the pellets obtained by recovering the cells via centrifugation, 100 μL of a lysis buffer [RIPA Buffer(×1)(Cell Signaling Technology, Inc.) supplemented with 1% Phosphatase inhibitor Cacktail 3 (Sigma Corporation, No. P0044), 1% Phosphatase inhibitor Cacktail (Nacalai Tesque, Inc., No. 07575) and 1 mM phenylmethylsulfonyl fluoride (PMSF)] was added and stirred gently and then allowed to stand for 10 minutes. The supernatant was recovered by centrifugation (15,000 rpm, 15 minutes) and the protein level was quantified. The portion was mixed with the SDS-sample buffer, allowed to react for 5 minutes at 95° C. to denature the protein, thereby obtaining a sample solution. Each 5 μL of the sample solutions was applied to each well containing a 5 to 20% gradient acrylamide gel (Nacalai Tesque, Inc., No. 13064-04) and electrophoresis was conducted. Thereafter, iBlot gel transfer system (Life Technologies Corporation) was used to transfer the proteins in the gel onto a PVDF membrane.
# The PVDF membrane after transfer was blocked with 2% ECL prime blocking Reagent (GE Healthcare) and thereafter the reaction was conducted overnight at 4° C. using anti-BTK mouse antibody (BD transduction laboratory, No. 611116) or anti-phosphorylated BTK rabbit antibody (pY223, EPITOMICS, No. 2207-1) as a primary antibody. The unreacted primary antibody was washed with a TBST buffer (10 mM Tris-HCl (pH 7.5), 150 mM NaCl, 0.1% Tween 20) and then the reaction was conducted for 1 hour at room temperature in a TBST buffer supplemented with 2% ECL prime blocking Reagent using HRP-labeled anti-mouse IgG horse antibody (Cell Signaling Technology, No. 7076) or anti-rabbit IgG goat antibody (Cell Signaling Technology, No. 7074) as a secondary antibody. After washing the unreacted secondary antibody with the TBST buffer, Chemi-Lumi One Super (Nacalai Tesque, Inc.) was used to conduct a reaction in accordance with the attached protocol, and then the respective bands as chemiluminescences were detected with a CCD camera (GE Healthcare ImageQuant LAS 500). […] Each phosphorylated BTK band was corrected based on the total BTK.
# The intracellular BTK autophosphorylation inhibiting activity was indicated with the mark “***” when 90% or more, with the mark “**” when 70% or more and less than 90%, and with the mark “*” when 50% or more and less than 70%.
# wild type BTK [BTK(WT)] = wild type BTK [BTK(WT)] (Homo sapiens (Human), UniProt Q06187); assay: C481S Mutant BTK Inhibitory Activity Test, wild type BTK (mobility shift assay); type: biochemical; settings: 120 μM ATP
# Chain of wild type BTK [BTK(WT)] (Q06187 whole entry): as above
# Description: (§1) The kinase activity was measured using QuickScout Screening Assist (trademark) MSA (commercially available kit manufactured by Carna Biosciences, Inc.) by mobility shift assay (MSA) method. The substrate of the kinase reaction was an FITC-labeled SRCtide peptide included in the kit. […] The 10 mM solution of the test compound in DMSO was further diluted with DMSO to 10 levels of the concentration (0.00003 mM, 0.0001 mM, 0.0003 mM, 0.001 mM, 0.003 mM, 0.01 mM, 0.03 mM, 0.1 mM, 0.3 mM, 1 mM), each of which was subjected to a 25-fold dilution with the assay buffer to obtain the drug solutions (4% DMSO solutions).
# (§2) 5 μL of the drug solution or a control solution (4% DMSO-assay buffer), 5 μL of the substrate mixture solution, and 10 μL of the enzyme solution were mixed in the wells of a polypropylene 384-well plate and allowed to react at room temperature for 1 hour, and then quenched by adding 60 μL of the termination buffer included in the kit. Subsequently, the quantities of the substrates (S) and the phosphorylated substrate (P) in the reaction solution were measured using LabChip EZ Reader II system (manufactured by Caliper Life Sciences) according to the protocol of the assay kit.
# (§3) The heights of the peaks of the isolated substrate and the phosphorylated substrate were represented as S and P, respectively, and a blank which contained the assay buffer instead of the enzyme solution was also measured.
# (§4) The inhibition rate (%) of the test compound was calculated according to the following equation; Inhibition rate (%)=(1−(C−A)/(B−A))×100 • wherein, A, B and C represent P/(P+S) of the blank well, P/(P+S) of the control well and P/(P+S) of the compound-containing well, respectively.
# (§5) The IC50 value was calculated via a regression analysis of the inhibition rate (%) and the test compound concentration (logarithmic value).
# [1] = molecular target: C481S mutant BTK [BTK(C481S)] (Homo sapiens (Human), UniProt Q06187, C481S); assay: C481S Mutant BTK Inhibitory Activity Test (mobility shift assay); type: biochemical; settings: for IC50: C481S mutant BTK, 100 μM ATP; for C481S mutation-resistance: IC50[BTK(C481S)]/IC50[BTK(WT)]
# Chain of C481S mutant BTK [BTK(C481S)] (Q06187 whole entry C481S): as the sequence (Q06187 whole entry) above, with C481S counted along it
# Description: as §1, §2, §3, §4, §5
# OCI-Ly10 cells = assay: Proliferation-Inhibitory Test Against Diffuse Large-Cell B-Cell Lymphoma OCI-Ly10 Strain; type: cell-based; settings: Homo sapiens, 96 hours, alamarBlue
# Outline: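 In IMDM with 20% FBS, OCI-Ly10 cells (20000 cells/well) were exposed to compound at 0.9 nM to 30000 nM (0.3% DMSO final) for 96 hours. Viability was then read with alamarBlue reagent.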
# Chain of dephosphorylated BTK (Q06187 whole entry): as the sequence (Q06187 whole entry) above
IC50 (dephosphorylated BTK) [nM],inhibition at 0.03 µM (BTK) [%],IC50 (wild type BTK [BTK(WT)]) [nM],IC50 [1] [nM],C481S mutation-resistance [1],IC50 (OCI-Ly10 cells) [nM],SMILES
< 10,≥ 90,–,–,–,–,"Nc1nc(-c2cccc(-n3ccc4cc(C5CC5)cc(F)c4c3=O)c2CO)c2cc(-c3ccccc3)[nH]c2n1 [Example 1, 2-[3-(2-amino-6-phenyl-7H-pyrrolo[2,3-d]pyrimidin-4-yl)-2-(hydroxymethyl)phenyl]-6-cyclopropyl-8-fluoroisoquinolin-1(2H)-one]"
< 10,≥ 90,0.97,0.99,1.0,68,"Nc1nc(-c2cccc(-n3ccc4cc(C5CC5)cc(F)c4c3=O)c2CO)c2nc(-c3ccccc3)[nH]c2n1 [Example 2, 2-[3-(2-amino-8-phenyl-9H-purin-6-yl)-2-(hydroxymethyl)phenyl]-6-cyclopropyl-8-fluoroisoquinolin-1(2H)-one]"
< 10,≥ 90,–,–,–,–,"Nc1nc(-c2cccc(-n3ccc4cc(C5CC5)cc(F)c4c3=O)c2CO)c2c(-c3ccccc3)n[nH]c2n1 [Example 3, 2-[3-(6-amino-3-phenyl-1H-pyrazolo[3,4-d]pyrimidin-4-yl)-2-(hydroxymethyl)phenyl]-6-cyclopropyl-8-fluoroisoquinolin-1(2H)-one]"
< 10,≥ 90,–,–,–,–,"Nc1nc(-c2cccc(-n3ccc4cc(C5CC5)cc(F)c4c3=O)c2CO)c2cn[nH]c2n1 [Example 5, 2-[3-(6-amino-1H-pyrazolo[3,4-d]pyrimidin-4-yl)-2-(hydroxymethyl)phenyl]-6-cyclopropyl-8-fluoroisoquinolin-1(2H)-one]"
< 10,≥ 90,0.33,0.43,1.3,4,"CN1CCN(Cc2ccc(-c3cc4c(-c5cccc(-n6ccc7cc(C8CC8)cc(F)c7c6=O)c5CO)nc(N)nc4[nH]3)cc2)CC1 [Example 8, 2-[3-(2-amino-6-{4-[(4-methylpiperazin-1-yl)methyl]phenyl}-7H-pyrrolo[2,3-d]pyrimidin-4-yl)-2-(hydroxymethyl)phenyl]-6-cyclopropyl-8-fluoroisoquinolin-1(2H)-one]"
< 10,70 to 90,–,–,–,–,"COc1ccccc1-c1cc2c(-c3cccc(-n4ccc5cc(C6CC6)cc(F)c5c4=O)c3CO)nc(N)nc2[nH]1 [Example 14, 2-{3-[2-amino-6-(2-methoxyphenyl)-7H-pyrrolo[2,3-d]pyrimidin-4-yl]-2-(hydroxymethyl)phenyl}-6-cyclopropyl-8-fluoroisoquinolin-1(2H)-one]"
< 10,≥ 90,–,–,–,–,"COc1cccc(-c2cc3c(-c4cccc(-n5ccc6cc(C7CC7)cc(F)c6c5=O)c4CO)nc(N)nc3[nH]2)c1 [Example 15, 2-{3-[2-amino-6-(3-methoxyphenyl)-7H-pyrrolo[2,3-d]pyrimidin-4-yl]-2-(hydroxymethyl)phenyl}-6-cyclopropyl-8-fluoroisoquinolin-1(2H)-one]"
< 10,≥ 90,–,–,–,–,"COc1ccc(-c2cc3c(-c4cccc(-n5ccc6cc(C7CC7)cc(F)c6c5=O)c4CO)nc(N)nc3[nH]2)cc1 [Example 16, 2-{3-[2-amino-6-(4-methoxyphenyl)-7H-pyrrolo[2,3-d]pyrimidin-4-yl]-2-(hydroxymethyl)phenyl}-6-cyclopropyl-8-fluoroisoquinolin-1(2H)-one]"
< 10,≥ 90,–,–,–,–,"Nc1nc(-c2cccc(-n3ccc4cc(C5CC5)cc(F)c4c3=O)c2CO)c2cc(-c3cccnc3)[nH]c2n1 [Example 17, 2-{3-[2-amino-6-(pyridin-3-yl)-7H-pyrrolo[2,3-d]pyrimidin-4-yl]-2-(hydroxymethyl)phenyl}-6-cyclopropyl-8-fluoroisoquinolin-1(2H)-one]"
< 10,≥ 90,–,–,–,–,"COc1cccc(-c2nc3c(-c4cccc(-n5ccc6cc(C7CC7)cc(F)c6c5=O)c4CO)nc(N)nc3[nH]2)c1 [Example 18, 2-{3-[2-amino-8-(3-methoxyphenyl)-9H-purin-6-yl]-2-(hydroxymethyl)phenyl}-6-cyclopropyl-8-fluoroisoquinolin-1(2H)-one]"
< 10,≥ 90,–,–,–,–,"Nc1nc(-c2cccc(-n3ccc4cc(C5CC5)cc(F)c4c3=O)c2CO)c2nc(-c3cccnc3)[nH]c2n1 [Example 25, 2-{3-[2-amino-8-(pyridin-3-yl)-9H-purin-6-yl]-2-(hydroxymethyl)phenyl]-6-cyclopropyl-8-fluoroisoquinolin-1(2H)-one]"
< 10,≥ 90,–,–,–,75,"Nc1nc(-c2cccc(-n3ccc4cc(C5CC5)cc(F)c4c3=O)c2CO)c2cc(-c3ccc(CN4CCOCC4)cc3)[nH]c2n1 [Example 26, 2-(3-{2-amino-6-[4-(morpholinomethyl)phenyl]-7H-pyrrolo[2,3-d]pyrimidin-4-yl}-2-(hydroxymethyl)phenyl)-6-cyclopropyl-8-fluoroisoquinolin-1(2H)-one]"
< 10,≥ 90,–,–,–,182,"N#Cc1ccc(-c2cc3c(-c4cccc(-n5ccc6cc(C7CC7)cc(F)c6c5=O)c4CO)nc(N)nc3[nH]2)cc1 [Example 27, 4-{2-amino-4-[3-(6-cyclopropyl-8-fluoro-1-oxoisoquinolin-2(1H)-yl)-2-(hydroxymethyl)phenyl]-7H-pyrrolo[2,3-d]pyrimidin-6-yl}benzonitrile]"
< 10,≥ 90,–,–,–,79,"Nc1nc(-c2cccc(-n3ccc4cc(C5CC5)cc(F)c4c3=O)c2CO)c2cc(-c3ccsc3)[nH]c2n1 [Example 32, 2-{3-[2-amino-6-(thiophen-3-yl)-7H-pyrrolo[2,3-d]pyrimidin-4-yl]-2-(hydroxymethyl)phenyl}-6-cyclopropyl-8-fluoroisoquinolin-1(2H)-one]"
